Where two headings read alike, the source gives them in different places. Marks after values point to notes of the source that are not given here. Square brackets hold non-standard residues; d marks the D form. Ends that are not written are not given here. Peptide text beside a SMILES is read from it. pGlu = O=C1CC[C@@H](C(=O)O)N1

Here are results for 6 molecules from patent US6969702B2, “Compounds and methods for increasing neurogenesis” (priority 2002, dated 2005).

Data set [1] deals with mouse adult neural stem cells. The settings on record: 0.1 µM.
For data set [2], the system named is cAMP activation in mouse adult neural stem cells.
Data set [3] relates to Adult neural stem cells. The settings on record: 0.1 µM.
The test system of data set [4] is Adult neural stem cells. Briefly: Flow cytometry for early neuronal marker Doublecortin. On the technique in general: In flow cytometry, cells or beads pass a laser one at a time.
For data set [5], the system named is mouse adult neural stem cells. Briefly: ATP-assay: proliferation (ATP levels) of neurosphere-derived cells.
Data set [6] concerns cAMP activation in mouse adult neural stem cells. Briefly: cAMP detection (HitHunter EFC Cyclic AMP Chemiluminescence Assay). As to conditions: for Fold Induction cAMP: 10 nM.
Data set [7] has as its system NFAT-Luciferace reporter (Ca^2+).
Data set [8] has as its system CREB phosphorylation in human adult neural stem cells. The class given is cell-based. As to conditions: 100 nM.
The test system of data set [9] is CREB phosphorylation in mouse adult neural stem cells. It is filed as cell-based. The settings on record: 100 nM.
[10] abbreviates: Table 2, 100 nM (cAMP concentration).
[11] abbreviates: Table 4, 100 nM, 24 hours after induction.

On to `CC[C@H](C)[C@H](NC(=O)[C@H](CCC(N)=O)NC(=O)[C@H](Cc1c[nH]cn1)NC(=O)[C@H](C)NC(=O)[C@H](CC(C)C)NC(=O)[C@H](CCCCN)NC(=O)[C@H](CCC(N)=O)NC(=O)[C@@H](NC(=O)[C@@H](N)[C@@H](C)O)C(C)C)C(=O)N[C@@H](Cc1ccc(O)cc1)C(=O)N[C@@H](CCC(N)=O)C(=O)N[C@@H](Cc1ccccc1)C(=O)N[C@H](C(=O)N[C@@H](CC(=O)O)C(=O)N[C@@H](CCCCN)C(=O)N[C@@H](CC(=O)O)C(=O)N[C@@H](CCCCN)C(=O)N[C@@H](CC(=O)O)C(=O)N[C@@H](CC(N)=O)C(=O)N[C@H](C(=O)N[C@@H](C)C(=O)N1CCC[C@H]1C(=O)N[C@@H](CCCNC(=N)N)C(=O)N[C@@H](CO)C(=O)N[C@@H](CCCCN)C(=O)N[C@H](C(=O)N[C@@H](CO)C(=O)N1CCC[C@H]1C(=O)N[C@@H](CCC(N)=O)C(=O)NCC(=O)N[C@@H](Cc1ccc(O)cc1)C(N)=O)[C@@H](C)CC)C(C)C)[C@@H](C)O` [Adrenomedullin (22-52)], for which the “Fold Induction ATP” value in [1] is 1.6** fold. In [2] (0.1 µM), the “Fold Induction cAMP” value is recorded as 1.6* fold. In [3], the “Fold Induction (Doublecortin-positive cells)” value worked out at 0.8 fold. The “% Doublecortin-positive cells” value in data set [4] is 2.0%. The “ATP (nM ATP/well)” value in data set [5] (Table 2, 100 nM, 4 days) is 12.3 ± 1.1 nM ATP/well. Further, the “cAMP (pmol/well)” value in data set [6] (setting [10]) was found to be 0.34 ± 0.07 pmol/well.

For `CC[C@H](C)[C@H](NC(=O)[C@H](CCC(N)=O)NC(=O)[C@H](Cc1c[nH]cn1)NC(=O)[C@H](C)NC(=O)[C@H](CC(C)C)NC(=O)[C@H](CCCCN)NC(=O)[C@H](CCC(N)=O)NC(=O)[C@@H](NC(=O)[C@@H](NC(=O)[C@@H]1CSSC[C@H](NC(=O)CNC(=O)[C@H](Cc2ccccc2)NC(=O)[C@H](CO)NC(=O)[C@H](CCCNC(=N)N)NC(=O)[C@H](CC(C)C)NC(=O)CNC(=O)[C@H](CCC(N)=O)NC(=O)[C@H](Cc2ccccc2)NC(=O)[C@H](CC(N)=O)NC(=O)[C@H](CC(N)=O)NC(=O)[C@H](CCSC)NC(=O)[C@H](CO)NC(=O)[C@H](CCC(N)=O)NC(=O)[C@H](CCCNC(=N)N)NC(=O)[C@@H](N)Cc2ccc(O)cc2)C(=O)N[C@@H](CCCNC(=N)N)C(=O)N[C@@H](Cc2ccccc2)C(=O)NCC(=O)N[C@@H]([C@@H](C)O)C(=O)N1)[C@@H](C)O)C(C)C)C(=O)N[C@@H](Cc1ccc(O)cc1)C(=O)N[C@@H](CCC(N)=O)C(=O)N[C@@H](Cc1ccccc1)C(=O)N[C@H](C(=O)N[C@@H](CC(=O)O)C(=O)N[C@@H](CCCCN)C(=O)N[C@@H](CC(=O)O)C(=O)N[C@@H](CCCCN)C(=O)N[C@@H](CC(=O)O)C(=O)N[C@@H](CC(N)=O)C(=O)N[C@H](C(=O)N[C@@H](C)C(=O)N1CCC[C@H]1C(=O)N[C@@H](CCCNC(=N)N)C(=O)N[C@@H](CO)C(=O)N[C@@H](CCCCN)C(=O)N[C@H](C(=O)N[C@@H](CO)C(=O)N1CCC[C@H]1C(=O)N[C@@H](CCC(N)=O)C(=O)NCC(=O)N[C@@H](Cc1ccc(O)cc1)C(N)=O)[C@@H](C)CC)C(C)C)[C@@H](C)O` [Adrenomedullin (human)], the “Fold Induction ATP” value in data set [1] is listed as 1.1* fold. In addition, in data set [2] (0.1 µM), the “Fold Induction cAMP” value is recorded as 2.5** fold. Besides, the “Fold Induction (Doublecortin-positive cells)” value in data set [3] stood at 1.6 fold. For the same molecule, in [4] (Table 6, 100 nM, 4 days), the “% Doublecortin-positive cells” value is 4.2%. Moreover, the “ATP (nM ATP/well)” value in data set [5] (Table 2, 100 nM, 4 days) was 11.6 ± 0.8 nM ATP/well; in data set [5] (Table 4, 100 nM), 11.6 ± 0.8 nM ATP/well. Further, the “Fold Induction NFAT” value in data set [7] (0.1 µM) is reported as 2.2** fold. Further, the “NFAT Luciferace units” value in [7] (setting [11]) is on record as 12.4 ± 0.9 Luciferace units. The “cAMP (pmol/well)” value in [6] (setting [10]) turned out to be 0.15 ± 0.3 pmol/well.

For `CC[C@H](C)[C@H](NC(=O)[C@H](Cc1ccccc1)NC(=O)[C@H](C)NC(=O)[C@H](CC(=O)O)NC(=O)[C@H](CCCCN)NC(=O)[C@H](CO)NC(=O)[C@@H]1CCCN1C(=O)[C@@H]1CCC(=O)N1)C(=O)NCC(=O)N[C@@H](CC(C)C)C(=O)N[C@@H](CCSC)C(N)=O` [Eledoisin] ([pGlu]PSKDAFIGLM-NH2), in data set [1] (mouse), the “Fold Induction ATP” value is given as 1.2* fold. The “Fold Induction cAMP” value in data set [2] (mouse, 0.001 µM) is reported as 1.2* (1 nM) fold. Also, the “Fold Induction (Doublecortin-positive cells)” value in data set [3] (mouse) was determined as 1.7 fold. The “% Doublecortin-positive cells” value in [4] (Table 6, 100 nM, 4 days) is reported as 4.3%. Also, in data set [5] (Table 2, 100 nM, 4 days), the “ATP (nM ATP/well)” value amounted to 10.4 ± 1.1 nM ATP/well. Further, the “cAMP (pmol/well)” value in [6] (Table 2, 1 nM (cAMP concentration)) is listed as 1.0 ± 0.06 pmol/well.

Turning to `CC1(C)SSC(C)(C)[C@@H](NC(=O)[C@@H](N)Cc2ccc(O)cc2)C(=O)NCC(=O)N[C@@H](Cc2ccccc2)C(=O)N[C@H]1C(=O)O` [[D-Pen2-5]-Enkephalin], the “% Doublecortin-positive cells” value in data set [4] (Table 6, 100 nM, 4 days) was 3.3%. In addition, the “Fold Induction (Doublecortin-positive cells)” value in [4] (Table 6, 100 nM, vs EGF/FGF) was 1.3 fold. Further, the “ATP (nM ATP/well)” value turned out to be 10.7 ± 0.9 nM ATP/well in [5] (Table 2, 10 nM, 4 days) and 10.7 ± 0.9 nM ATP/well in data set [5] (Table 4, 10 nM). For the same molecule, the “Fold Induction ATP” value in data set [5] (Table 2, 10 nM, 4 days, vs vehicle) is 1.2** fold; in data set [5] (Table 4, 10 nM, vs vehicle) it was 1.2* fold. Further, in [7] (setting [11]), the “NFAT Luciferace units” value worked out at 10.3 ± 2.1 Luciferace units. Besides, in [7] (Table 4, 100 nM, vs vehicle), the “Fold Induction NFAT” value was 1.8* fold. The “cAMP (pmol/well)” value in data set [6] (Table 2, 10 nM (cAMP concentration)) is 0.06 ± 0.01 pmol/well. Further, the “Fold Induction cAMP” value in [6] (Table 2, vs vehicle) was 1.7* fold.

For the molecule “PACAP: pituitary adengate cyclase activating peptide, cAMP activator (HSDGIFTDSYSRYRKQMAVKKYLAAVLGKRYKQRVKNK; ends and bridges not checked; UniProt P18509 132-169, looked up)”, the CREB phosphorylation result in data set [8] (human adult neural stem cells, time course 15 minutes to 8 hours) is “up-regulation of CREB phosphorylation”; in [9] (mouse adult neural stem cells, time course 15 minutes to 8 hours), “up-regulation of CREB phosphorylation”.

In the case of cholera toxin, in data set [8], the CREB phosphorylation result was “up-regulation of CREB phosphorylation”. In addition, in data set [9], the CREB phosphorylation result is “up-regulation of CREB phosphorylation”. In addition, the “Fold Induction (Doublecortin-positive cells)” value in data set [4] (100 nM) was found to be 2.6 fold. In addition, the “% Doublecortin-positive cells” value in [4] (100 nM, 4 days) is recorded as 6.7%. Further, the “proliferation of neural stem cells” value in data set [5] is on record as “increase”. In [5] (100 nM), the “ATP (nM ATP/well)” value worked out at 12.9 ± 1.6 nM ATP/well and the “Fold Induction ATP” value is reported as 1.4* fold. The “Fold Induction ATP” value in [5] (100 nM, 4 days) is listed as 1.4* fold. For the same molecule, in data set [7] (100 nM), the “Fold Induction NFAT” value is recorded as 1.4** fold and the “NFAT Luciferace units” value was determined as 11.6 ± 1.0 Luciferace units. Besides, in data set [6], the “cAMP (pmol/well)” value is recorded as 0.07 ± 0.01 pmol/well and the “Fold Induction cAMP” value is 3.1*** fold.
